Four molecules from PMC8476055, “Synthesis and Biological Activity of Triterpene–Coumarin Conjugates” (Journal of Natural Products, 2021) can be followed below.

Where “and” joins values, the source holds several entries; their conditions need not be identical. Equal values may be shown once.

Usually IC50 stands for the concentration that inhibits the measured activity by half.

Data set [1] deals with B16–F10 murine melanoma cells. The experiment in a line: MTT cell proliferation assay, B16–F10 cells. Type of data set: cell-based. The settings on record: Mus musculus, 72 h treatment, untreated control = 100% viability, read-out: IC50, growth inhibition of B16–F10 cells. On the procedure:
(§1) These studies were performed using a 3-(4,5-dimethylthiazol-2-yl)-2,5-diphenyltetrazolium bromide (MTT) assay, with increasing concentration levels of each compound (0–200 μg/mL). Cell viability was determined after treatment for 72 h, by absorption of a formazan dye.
(§2) […] ATTC HTB-38), Hep G2 human hepatocyte carcinoma cells (ECACC 85011430), nontumor human epithelial lung fibroblast cells HPF (ScienCell catalog (cat.) no. 3300), nontumor rat ileum cells IEC-18 (ECACC no. 88011801), and nontumor human embryo liver cells (ECACC 89121403) were cultured in DMEM medium supplemented with 2 mM glutamine, 10% heat-inactivated fetal bovine serum (FCS), 10.000 units/mL penicillin, and […]. These cells were incubated at 37 °C in an atmosphere of 5% CO2 and 95% humidity. The culture media were changed every 48 h, and the confluent cultures were separated with a trypsin solution (0.25% EDTA). Subconfluent monolayer cells were used in all experiments. All cell lines used were provided by the cell bank of the University of Granada (Spain).
(§3) The effect of the synthesized compounds on the viability of tumor cells was assessed using an MTT assay, based on the ability of living cells to cleave the tetrazolium ring, thus producing formazan, which absorbs at 570 nm. […] For an evaluation of the cytotoxic effects of these compounds, the cells were seeded in 96-well plates at an initial density of 5 × 10^3 B16–F10 cells, 6 × 10^3 HT29 cells, 15 × 10^3 Hep G2 cells, 8 × 10^3 HPF cells, 15 × 10^3 IEC-18 cells, and 11 × 10^3 WRL68 cells, per well. After incubation for 24 h, the cells were treated with the synthesized compounds in triplicate, at different concentrations (0–200 μg/mL), and incubated for 72 h. Thereafter, 100 μL of MTT solution (0.5 mg/mL) were added to each well. After 2 h of incubation, the cells were washed twice with phosphate buffered saline (PBS), and the formazan was resuspended in 100 μL of DMSO. Relative cell viability, with respect to untreated control cells, was measured by absorbance at 550 nm on an ELISA plate reader (Tecan Sunrise MR20-301, TECAN, Austria). […] These experiments were measured and compared to the control after 72 h of treatment.
(In general: Formazan colour is commonly taken as a measure of viable cells.)

The subject of data set [2] is Hep G2 human hepatocyte carcinoma cells. Put plainly: MTT cell proliferation assay, Hep G2 cells. Type of data set: cell-based. The settings on record: HepG2, 72 h treatment, untreated control = 100% viability, read-out: IC50, growth inhibition of Hep G2 cells. How it is done: as §1, §2, §3
The test system of another data set is HT29 cells. Put plainly: Annexin V-FITC/PI flow cytometry (apoptosis), HT29. Type of data set: cell-based, human. The settings on record: HT29, 72 h at IC50 concentration, mean ± S.E.M. How it is done: In consideration of the cytotoxic results of these triterpene conjugates with the three cell lines assayed, three MA–diamine–coumarin conjugates (1, 4, and 7) and the MA–coumarin conjugate 10 were selected for the following cytometry studies on the three cancer cell lines. Thus, the apoptotic determination assays were performed through double staining with Annexin V (An-V), conjugated fluorescein isothiocyanate (FITC), and propidium iodide (PI). […] The values of percentage of total apoptosis were expressed as means ± SEM of at least two duplicate experiments (Figure 1).
Apoptosis was assessed by flow cytometry using a FACScan (fluorescence-activated cell sorter) flow cytometer (Coulter Corporation, Hialeah, FL, USA). For these assays, 5 × 10^4 B16–F10, 6 × 10^4 HT29 cells, and 15 × 10^4 Hep G2 cells were placed in 24-well plates with 1.5 mL of medium and incubated for 24 h. Subsequently, the cells were treated with the selected compounds in triplicate for 72 h at their corresponding IC50 concentrations. The cells were collected and resuspended in a binding buffer (10 mM HEPES/NaOH, pH 7.4, 140 mM NaCl, 2.5 mM CaCl2). Annexin V-FITC conjugate (1 mg/mL) was then added and incubated for 15 min at room temperature in darkness. Just before the analysis by flow cytometry, cells were stained with 20 μL of 1 mg/mL PI solution. In each experiment, approximately 10 × 10^3 cells were analyzed, and the experiment was duplicated twice.

The next data set concerns B16–F10 cells. The experiment in a line: Mitochondrial-membrane potential (Rh123) flow cytometry, B16–F10. The settings on record: B16–F10, 72 h at IC50 concentration. Type of data set: cell-based, murine. How it is done: The study of the loss of the mitochondrial-membrane potential (MMP) of tumor cells, when treated with drugs, can provide information on the activation mechanism of apoptosis. This activation can occur extrinsically when MMP is not altered, and intrinsically when a loss of this potential is caused by mitochondrial disruption. […] The values of percentage of cell population were expressed as means ± SEM of at least two experiments in duplicate. Changes in MMP were analyzed by monitoring cell fluorescence after staining with rhodamine 123 (Rh123).
The electrochemical gradient across the mitochondrial membrane was examined by analytical flow cytometry, using dihydrorhodamine (DHR), which in contact with living cells, oxidized to form highly fluorescent rhodamine 123 (Rh123). The fluorescence emitted can be monitored by fluorescence spectroscopy using excitation and emission wavelengths of 500 and 536 nm, respectively. […] Following treatment, the culture medium was renewed with fresh medium by adding 0.5 mL of DHR, for a final concentration of […]. Cells were incubated for 1 h at 37 °C in an atmosphere of 5% CO2 and 95% humidity and subsequently washed and resuspended in PBS. The fluorescence intensity was measured using a FACScan flow cytometer (fluorescence-activated cell sorter). The experiments were performed three times with two replicates per assay.

Turning to `CC1(C)CC[C@]2(C(=O)NCCCNC(=O)c3cc4ccccc4oc3=O)CC[C@]3(C)C(=CC[C@@H]4[C@@]5(C)C[C@@H](O)[C@H](O)C(C)(C)[C@@H]5CC[C@]43C)[C@@H]2C1` [Compound 1, 2α,3β-Dihydroxy-N-(3′-(2″-oxo-2″H-chromene-3″-carboxamido)propyl)olean-12-en-28-amide], the IC50 in data set [1] was over 10 µM. Besides, the IC50 in data set [2] is over 10 µM. In the data set with HT29 cells, the “Early Apoptosis” value was found to be 10.8 ± 0.6%, the “Late Apoptosis” value is 29.2 ± 0.5%, the Necrosis is reported as 3.7 ± 0.9% and the “Total Apoptosis” value stood at 40.0 ± 0.5%. Further, the “Viable Cells” value in the data set on HT29 cells turned out to be 56.3 ± 1.3%. The “Rh123 staining (mitochondrial-membrane potential)” value (from here on “Rh123 staining”) in the data set on B16–F10 cells is given as “positive Rh123 staining”.

With `CC1(C)CC[C@]2(C(=O)NCCCNC(=O)Cc3cc(=O)oc4cc(O)ccc34)CC[C@]3(C)C(=CC[C@@H]4[C@@]5(C)C[C@@H](O)[C@H](O)C(C)(C)[C@@H]5CC[C@]43C)[C@@H]2C1` [Compound 4, 2α,3β-Dihydroxy-N-(3′-(2″-(7‴-hydroxy-2‴-oxo-2‴H-chromen-4‴-yl)acetamido)propyl)olean-12-en-28-amide], in data set [1], the IC50 is over 10 µM. The half-maximal inhibitory concentration (IC50) in data set [2] was over 10 µM. Moreover, in the data set on HT29 cells, the “Early Apoptosis” value is 32.0 ± 2.3%, the “Late Apoptosis” value is listed as 20.5 ± 3.0%, the Necrosis was found to be 6.2 ± 0.9% and the “Total Apoptosis” value came to 52.4 ± 3.0%. The “Viable Cells” value with HT29 cells is 41.4 ± 3.8%. For the same molecule, the “Rh123 staining” value in the data set on B16–F10 cells was “positive Rh123 staining”.

On to `CC1(C)CC[C@]2(C(=O)NCCCNC(=O)/C=C/c3ccc(O)cc3)CC[C@]3(C)C(=CC[C@@H]4[C@@]5(C)C[C@@H](O)[C@H](O)C(C)(C)[C@@H]5CC[C@]43C)[C@@H]2C1` [Compound 7, 2α,3β-Dihydroxy-N-(3′-((E)-3″-(4‴-hydroxyphenyl)acrylamido)propyl)olean-12-en-28-amide], for which the IC50 in data set [1] is 10.4 ± 0.2 µM. In addition, the half-maximal inhibitory concentration (IC50) in data set [2] was found to be 8.8 ± 0.4 µM. Further, in the data set on HT29 cells, the “Early Apoptosis” value amounted to 16.2 ± 3.6%, the “Late Apoptosis” value is 29.4 ± 1.6%, the Necrosis is 1.5 ± 0.4% and the “Total Apoptosis” value amounted to 45.6 ± 2.0%. Moreover, the “Viable Cells” value with HT29 cells came out at 52.9 ± 2.0%. Moreover, the “Rh123 staining” value in the data set on B16–F10 cells is recorded as “positive Rh123 staining”.

With `CC1(C)CC[C@]2(C(=O)O)CC[C@]3(C)C(=CC[C@@H]4[C@@]5(C)C[C@@H](OC(=O)c6cc7ccccc7oc6=O)[C@H](OC(=O)c6cc7ccccc7oc6=O)C(C)(C)[C@@H]5CC[C@]43C)[C@@H]2C1` [Compound 10], in data set [1], the IC50 came to 0.6 µM. The concentration for half-maximal inhibition (IC50) in data set [2] turned out to be 0.9 µM. Besides, in the data set with HT29 cells, the “Early Apoptosis” value worked out at 23.8 ± 4.2%; the “Late Apoptosis” value is on record as 34.1 ± 4.9%; the Necrosis amounted to 6.5 ± 0.0%; the “Total Apoptosis” value was 57.9 ± 1.6% and 58%. The “Viable Cells” value in the data set with HT29 cells is 35.7 ± 2.3%. For the same molecule, the “Rh123 staining” value in the data set on B16–F10 cells is reported as “positive Rh123 staining”.
